# ChEMBL document CHEMBL1208675, “Validated QSAR analysis of some diaryl substituted pyrazoles as CCR2 inhibitors by various linear and nonlinear multivariate chemometrics methods” (Eur J Med Chem, 2010)
# Target: C-C chemokine receptor type 2 (Homo sapiens, UniProt P41597)
# Test: Inhibition of CCR2
# Sequence of C-C chemokine receptor type 2 (P41597 whole entry): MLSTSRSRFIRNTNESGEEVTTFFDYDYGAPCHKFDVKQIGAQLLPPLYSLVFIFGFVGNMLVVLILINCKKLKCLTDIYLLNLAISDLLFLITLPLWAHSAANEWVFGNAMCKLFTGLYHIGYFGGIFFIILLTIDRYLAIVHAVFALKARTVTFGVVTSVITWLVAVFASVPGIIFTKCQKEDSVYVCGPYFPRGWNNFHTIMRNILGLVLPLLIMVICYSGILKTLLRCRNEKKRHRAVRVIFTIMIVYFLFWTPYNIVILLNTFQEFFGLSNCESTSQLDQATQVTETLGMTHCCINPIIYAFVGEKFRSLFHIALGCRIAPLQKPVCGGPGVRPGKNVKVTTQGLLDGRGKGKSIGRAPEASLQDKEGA
row,Structure (SMILES),IC50
1,COC(=O)[C@H](Cc1cnc[nH]1)NC(=O)CCc1cc(-c2cc(Cl)cc(Cl)c2)nn1-c1ccc2ccccc2c1,2840 nM
2,O=C(CCc1cc(-c2cc(Cl)cc(Cl)c2)nn1-c1ccc2ccccc2c1)NCCCc1ccc2c(n1)NCCC2,9330 nM
3,COC(=O)[C@H](CCCN=C(N)N)NC(=O)CCNCc1cc(-c2cc(Cl)cc(Cl)c2)nn1-c1ccc2ccccc2c1,43 nM
4,CCN(CC)CCCC(C)NC(=O)CCCc1cc(-c2cc(Cl)cc(Cl)c2)nn1-c1ccc2ccccc2c1 (centres undefined),6470 nM
5,CCCCC(CCCN(CC)CC)NC(=O)CCOc1cc(-c2cc(Cl)cc(Cl)c2)nn1-c1ccc2ccccc2c1 (centres undefined),52 nM

# The next lines start with the values.
row,IC50,Structure (SMILES)
1,1120 nM,O=C(CCc1cc(-c2cc(Cl)cc(Cl)c2)nn1-c1ccc2ccccc2c1)NCCCc1ccncc1
2,1800 nM,CN(C)CCCCNC(=O)CCc1cc(-c2cc(Cl)cc(Cl)c2)nn1-c1ccc2ccccc2c1
3,1220 nM,CCN(CC)CCCCNC(=O)CCc1cc(-c2cc(Cl)cc(Cl)c2)nn1-c1ccc2ccccc2c1
4,108 nM,CCN(CC)C(C)CCCNC(=O)CCc1cc(-c2cc(Cl)cc(Cl)c2)nn1-c1ccc2ccccc2c1 (centres undefined)
